The numbers were not newly measured in PMC10088252, which cites them from elsewhere.

Like-named read-outs stand apart in the source and are kept apart here.

Data set [1] deals with MET exon 14-mutated or MET-amplified NSCLC. More on the design: method as in PMID 32877583. Particulars: cited from earlier work.
Data set [2] concerns MET exon 14-mutated NSCLC. The arrangement: method as in PMID 35720834. As to conditions: real-world; cited from earlier work.
Data set [3] relates to MET-positive solid tumors. More on the design: method as in PMID 31778267. As to conditions: all patients (76); cited from earlier work.
Data set [4] deals with MET- or ROS1-positive NSCLC. More on the design: method as in PMID 31584608. As to conditions: cited from earlier work.
Data set [5] relates to NSCLC harboring MET exon 14 skipping mutation. The arrangement: method as in PMID 34166627. As to conditions: cited from earlier work.
The subject of data set [6] is advanced solid tumors with c-MET H-score of ≥ 150. The arrangement: method as in PMID 30285518. As to conditions: 16 patients with NSCLC; cited from earlier work.
[7] abbreviates: of 13 patients with brain metastases at baseline.

With `CNC(=O)c1ccc(-c2cnc3ncc(Cc4ccc5ncccc5c4)n3n2)cc1F` [capmatinib], the ORR in data set [1] (MET amplification, gene copy number < 10) was 7–12%; in data set [1] (MET amplification, gene copy number ≥ 10, previously treated), 29%; in data set [1] (MET amplification, gene copy number ≥ 10, treatment-naïve), 40%; in data set [1] (patients harboring MET exon 14 skipping mutation), 41%; in data set [1] (previously treated MET exon 14-mutated NSCLC) it was 41%; in data set [1] (treatment-naïve MET exon 14-mutated NSCLC), 68%. Also, in data set [2], the ORR was 58%. The TEAE nausea in data set [1] is 45%. The TEAE peripheral edema in data set [1] is listed as 51%. Besides, the “patients who discontinued treatment due to TRAEs” value in data set [1] is reported as 11%. Also, the “patients achieving intracranial response” value in data set [1] (setting [7]) was “Seven”. Besides, in data set [1] (setting [7]), the “patients with intracranial CR” value is on record as “four”. The “median PFS” value in data set [2] was 9.5 months. The DCR in data set [3] is 26%.

`C[C@@H](Oc1cc(-c2cnn(C3CCNCC3)c2)cnc1N)c1c(Cl)ccc(F)c1Cl` [crizotinib]: the ORR in data set [4] (MET copy number ≥ 6) is 16%; in data set [4] (MET mutation), 10.7%.

`C[C@@H](c1ccc2nccn2c1)n1nnc2ncc(-c3cnn(C)c3)nc21` [savolitinib]: the DCR in data set [5] (15 MET exon 14-mutated NSCLC patients with brain metastases) is 93.3%. Besides, in data set [5], the “grade ≥ 3 TRAE increased ALT” value is listed as 10%, the “grade ≥ 3 TRAE increased AST” value was 13%, the “grade ≥ 3 TRAE peripheral oedema” value is 9% and the “incidence of grade ≥ 3 TRAEs” value is on record as 46%. The ORR in data set [5] (patients harboring MET exon 14 skipping mutation, FAS) was 42.9%.

B1: telisotuzumab vedotin (conjugate, chains of the INN, looked up)
VH: QVQLVQSGAEVKKPGASVKVSCKASGYIFTAYTMHWVRQAPGQGLEWMGWIKPNNGLANYAQKFQGRVTMTRDTSISTAYMELSRLRSDDTAVYYCARSEITTEFDYWGQGTLVTVSS
VL: DIVMTQSPDSLAVSLGERATINCKSSESVDSYANSFLHWYQQKPGQPPKLLIYRASTRESGVPDRFSGSGSGTDFTLTISSLQAEDVAVYYCQQSKEDPLTFGGGTKVEIK
modifications: vedotin (MMAE) payload
B1: the DCR in data set [6] is 56%.
